Results published in patent publication US20110039721A1, “METHOD FOR PREDICTION ABOUT CARCINOGENICITY OF SUBSTANCE IN RODENT” (Chemicals Evaluation and Research Institute, priority 2007, published 2011).
Like-named read-outs stand apart in the source and are kept apart here.

Columns and labels:
[1] = system: mRNA expressed from the genes (A) to (D) in rat liver; assay: Behavior of genes (mRNA expression level, oligo-DNA microarray) in rat liver after 28-day oral administration; format: in vivo; conditions: for Behavior of gene caused by administration of chemical substance, Gene No. 4846 / Behavior of gene caused by administration of chemical substance, Gene No. 2026 / Behavior of gene caused by administration of chemical substance, Gene No. 4218 / Behavior of gene caused by administration of chemical substance, Gene No. 6182 / Behavior of gene caused by administration of chemical substance, Gene No. 5600: gene group (A); for Behavior of gene caused by administration of chemical substance, Gene No. 4846: Unigene No. Rn.144554; for Behavior of gene caused by administration of chemical substance, Gene No. 2026 / Behavior of gene caused by administration of chemical substance, Gene No. 4218: Unigene No. Rn.167075; for Behavior of gene caused by administration of chemical substance, Gene No. 6182: Unigene No. Rn.5834; for Behavior of gene caused by administration of chemical substance, Gene No. 5600: Unigene No. Rn.9836; for Behavior of gene caused by administration of chemical substance, Gene No. 1494 / Behavior of gene caused by administration of chemical substance, Gene No. 2045 / Behavior of gene caused by administration of chemical substance, Gene No. 2203: gene group (B); for Behavior of gene caused by administration of chemical substance, Gene No. 1494: Unigene No. Rn.1430; for Behavior of gene caused by administration of chemical substance, Gene No. 2045: Unigene No. Rn.19329; for Behavior of gene caused by administration of chemical substance, Gene No. 2203: Unigene No. Rn.21240; for Behavior of gene caused by administration of chemical substance, Gene No. 533 / Behavior of gene caused by administration of chemical substance, Gene No. 725 / Behavior of gene caused by administration of chemical substance, Gene No. 1163 / Behavior of gene caused by administration of chemical substance, Gene No. 4973 / Behavior of gene caused by administration of chemical substance, Gene No. 4095 / Behavior of gene caused by administration of chemical substance, Gene No. 1334 / Behavior of gene caused by administration of chemical substance, Gene No. 6620 / Behavior of gene caused by administration of chemical substance, Gene No. 6303 / Behavior of gene caused by administration of chemical substance, Gene No. 5878 / Behavior of gene caused by administration of chemical substance, Gene No. 1131 / Behavior of gene caused by administration of chemical substance, Gene No. 1562 / Behavior of gene caused by administration of chemical substance, Gene No. 1741 / Behavior of gene caused by administration of chemical substance, Gene No. 893 / Behavior of gene caused by administration of chemical substance, Gene No. 6026 / Behavior of gene caused by administration of chemical substance, Gene No. 154 / Behavior of gene caused by administration of chemical substance, Gene No. 1993 / Behavior of gene caused by administration of chemical substance, Gene No. 813 / Behavior of gene caused by administration of chemical substance, Gene No. 2494 / Behavior of gene caused by administration of chemical substance, Gene No. 2546 / Behavior of gene caused by administration of chemical substance, Gene No. 3776 / Behavior of gene caused by administration of chemical substance, Gene No. 3929 / Behavior of gene caused by administration of chemical substance, Gene No. 1119 / Behavior of gene caused by administration of chemical substance, Gene No. 6742 / Behavior of gene caused by administration of chemical substance, Gene No. 5634: gene group (C); for Behavior of gene caused by administration of chemical substance, Gene No. 533: Unigene No. Rn.106184; for Behavior of gene caused by administration of chemical substance, Gene No. 725: Unigene No. Rn.108075; for Behavior of gene caused by administration of chemical substance, Gene No. 1163: Unigene No. Rn.11766; for Behavior of gene caused by administration of chemical substance, Gene No. 4973: Unigene No. Rn.118529; for Behavior of gene caused by administration of chemical substance, Gene No. 4095: Unigene No. Rn.119024; for Behavior of gene caused by administration of chemical substance, Gene No. 1334 / Behavior of gene caused by administration of chemical substance, Gene No. 6620: Unigene No. Rn.120914; for Behavior of gene caused by administration of chemical substance, Gene No. 6303: Unigene No. Rn.123063; for Behavior of gene caused by administration of chemical substance, Gene No. 5878: Unigene No. Rn.143213; for Behavior of gene caused by administration of chemical substance, Gene No. 1131: Unigene No. Rn.144946; for Behavior of gene caused by administration of chemical substance, Gene No. 1562: Unigene No. Rn.14744; for Behavior of gene caused by administration of chemical substance, Gene No. 1741: Unigene No. Rn.1647; for Behavior of gene caused by administration of chemical substance, Gene No. 893: Unigene No. Rn.164817; for Behavior of gene caused by administration of chemical substance, Gene No. 6026: Unigene No. Rn.167685; for Behavior of gene caused by administration of chemical substance, Gene No. 154: Unigene No. Rn.185941; for Behavior of gene caused by administration of chemical substance, Gene No. 1993: Unigene No. Rn.18728; for Behavior of gene caused by administration of chemical substance, Gene No. 813: Unigene No. Rn.201760; for Behavior of gene caused by administration of chemical substance, Gene No. 2494: Unigene No. Rn.23969; for Behavior of gene caused by administration of chemical substance, Gene No. 2546: Unigene No. Rn.24561; for Behavior of gene caused by administration of chemical substance, Gene No. 3776: Unigene No. Rn.43232; for Behavior of gene caused by administration of chemical substance, Gene No. 3929: Unigene No. Rn.4620; for Behavior of gene caused by administration of chemical substance, Gene No. 1119: Unigene No. Rn.9757; for Behavior of gene caused by administration of chemical substance, Gene No. 6742: Unigene No. Rn.9779; for Behavior of gene caused by administration of chemical substance, Gene No. 5634: Unigene No. Rn.9862; for Behavior of gene caused by administration of chemical substance, Gene No. 5726: gene group (D), Unigene No. Rn.9939
Method in brief: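 Liver mRNA measured by oligo-DNA microarray after 28 days of once-daily oral gavage in 5-week-old male F344 rats (n=4 per group), with vehicle controls given equal solvent volume. Significance threshold: 1.5-fold up or down versus control, with changes opposite in direction to other carcinogens counted as not significant.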

[2] = system: liver; conditions: cited from earlier work
[3] = system: rodent; conditions: classification of the substance (C+/C−); cited from earlier work
[4] = classification of the substance (M+/M−); cited from earlier work
[5] = classification of the substance (Cr+/Cr−)

SMILES | Behavior of gene caused by administration of chemical substance, Gene No. 4846 [1] | Behavior of gene caused by administration of chemical substance, Gene No. 2026 [1] | Behavior of gene caused by administration of chemical substance, Gene No. 4218 [1] | Behavior of gene caused by administration of chemical substance, Gene No. 6182 [1] | Behavior of gene caused by administration of chemical substance, Gene No. 5600 [1] | Behavior of gene caused by administration of chemical substance, Gene No. 1494 [1] | Behavior of gene caused by administration of chemical substance, Gene No. 2045 [1] | Behavior of gene caused by administration of chemical substance, Gene No. 2203 [1] | Behavior of gene caused by administration of chemical substance, Gene No. 533 [1] | Behavior of gene caused by administration of chemical substance, Gene No. 725 [1] | Behavior of gene caused by administration of chemical substance, Gene No. 1163 [1] | Behavior of gene caused by administration of chemical substance, Gene No. 4973 [1] | Behavior of gene caused by administration of chemical substance, Gene No. 4095 [1] | Behavior of gene caused by administration of chemical substance, Gene No. 1334 [1] | Behavior of gene caused by administration of chemical substance, Gene No. 6620 [1] | Behavior of gene caused by administration of chemical substance, Gene No. 6303 [1] | Behavior of gene caused by administration of chemical substance, Gene No. 5878 [1] | Behavior of gene caused by administration of chemical substance, Gene No. 1131 [1] | Behavior of gene caused by administration of chemical substance, Gene No. 1562 [1] | Behavior of gene caused by administration of chemical substance, Gene No. 1741 [1] | also measured
Nc1ccc([N+](=O)[O-])cc1N [TS035, 4-Nitro-o-phenylenediamine] | − | + | − | − | − | + | − | − | + | + | + | − | − | + | + | + | − | − | − | + | Behavior of gene caused by administration of chemical substance, Gene No. 893 [1]: −; Behavior of gene caused by administration of chemical substance, Gene No. 6026 [1]: −; Behavior of gene caused by administration of chemical substance, Gene No. 154 [1]: −; Behavior of gene caused by administration of chemical substance, Gene No. 1993 [1]: +; Behavior of gene caused by administration of chemical substance, Gene No. 813 [1]: +; Behavior of gene caused by administration of chemical substance, Gene No. 2494 [1]: −; Behavior of gene caused by administration of chemical substance, Gene No. 2546 [1]: +; Behavior of gene caused by administration of chemical substance, Gene No. 3776 [1]: −; Behavior of gene caused by administration of chemical substance, Gene No. 3929 [1]: −; Behavior of gene caused by administration of chemical substance, Gene No. 1119 [1]: −; Behavior of gene caused by administration of chemical substance, Gene No. 6742 [1]: −; Behavior of gene caused by administration of chemical substance, Gene No. 5634 [1]: +; Behavior of gene caused by administration of chemical substance, Gene No. 5726 [1]: −; Liver carcinogenicity ([2]; in vivo): Cr−; Carcinogenicity [3]: C−; Mutagenicity by Ames test [4]: M+
O=c1c(O)c(-c2ccc(O)c(O)c2)oc2cc(O)cc(O)c12 [TS037, Quercetin] | − | − | − | − | − | − | − | − | − | − | − | − | − | − | − | − | − | − | − | − | Behavior of gene caused by administration of chemical substance, Gene No. 893 [1]: −; Behavior of gene caused by administration of chemical substance, Gene No. 6026 [1]: −; Behavior of gene caused by administration of chemical substance, Gene No. 154 [1]: −; Behavior of gene caused by administration of chemical substance, Gene No. 1993 [1]: −; Behavior of gene caused by administration of chemical substance, Gene No. 813 [1]: −; Behavior of gene caused by administration of chemical substance, Gene No. 2494 [1]: −; Behavior of gene caused by administration of chemical substance, Gene No. 2546 [1]: −; Behavior of gene caused by administration of chemical substance, Gene No. 3776 [1]: −; Behavior of gene caused by administration of chemical substance, Gene No. 3929 [1]: −; Behavior of gene caused by administration of chemical substance, Gene No. 1119 [1]: −; Behavior of gene caused by administration of chemical substance, Gene No. 6742 [1]: −; Behavior of gene caused by administration of chemical substance, Gene No. 5634 [1]: −; Behavior of gene caused by administration of chemical substance, Gene No. 5726 [1]: −; Liver carcinogenicity [2, 5]: Cr−; Carcinogenicity [3]: C−; Mutagenicity by Ames test [4]: M+
IC(I)I [TS039, Iodoform] | − | − | − | − | − | + | − | − | − | − | − | − | − | + | + | + | − | − | − | + | Behavior of gene caused by administration of chemical substance, Gene No. 893 [1]: +; Behavior of gene caused by administration of chemical substance, Gene No. 6026 [1]: −; Behavior of gene caused by administration of chemical substance, Gene No. 154 [1]: +; Behavior of gene caused by administration of chemical substance, Gene No. 1993 [1]: −; Behavior of gene caused by administration of chemical substance, Gene No. 813 [1]: −; Behavior of gene caused by administration of chemical substance, Gene No. 2494 [1]: −; Behavior of gene caused by administration of chemical substance, Gene No. 2546 [1]: −; Behavior of gene caused by administration of chemical substance, Gene No. 3776 [1]: −; Behavior of gene caused by administration of chemical substance, Gene No. 3929 [1]: −; Behavior of gene caused by administration of chemical substance, Gene No. 1119 [1]: −; Behavior of gene caused by administration of chemical substance, Gene No. 6742 [1]: +; Behavior of gene caused by administration of chemical substance, Gene No. 5634 [1]: +; Behavior of gene caused by administration of chemical substance, Gene No. 5726 [1]: −; Liver carcinogenicity [2, 5]: Cr−; Carcinogenicity [3]: C−; Mutagenicity by Ames test [4]: M+
